# Test results from patent US5451518A, “Purified human ceramide-activated protein kinase” (Sloan-Kettering Institute for Cancer Research, priority 1992, dated 1995).
# Entries after “also recorded” stand apart in the source; their conditions may differ. Like-named read-outs stand apart in the source and are kept apart here.
# Legend:
# [1] = test system: sphingomyelin (HL-60 nuclei-free supernate); assay: Sphingomyelin content in HL-60 cell-free system; assay type: biochemical, human
# Method: (§1) HL-60 cells were grown in RPMI 1640 medium supplemented with 10% bovine calf serum and amino acids (4). To measure sphingomyelin, cells were resuspended (1×10^6 ml^-1), labeled for 48 hours in medium with [^3 H]choline (1 μCi ml^-1) (57), in serum-free medium containing bovine insulin (5 μg ml^-1) and human transferrin (5 μg ml^-1). After 3 hours, cells were resuspended (150×10^6 ml^-1) in homogenization buffer (50 mM NaF, 5 mM EGTA, and 25 mM Hepes, pH 7.4), disrupted at 4° C. with 150 strokes of a tight-fitting Dounce homogenizer (Fisher Scientific, Pittsburgh, Pa.), and centrifuged for 5 minutes (500 g). The nuclei-free supernate was first incubated for 5 minutes at 4° C. with 30 nM human TNF-α (Genentech, South San Francisco, Calif.) or diluent ( 50 mMHepes, pH 7.4). At time zero, 15 μl of supernate (112 μg per incubation) were added to a reaction mixture containing 30 μl of 25 mM Hepes, pH 7.4, 30 μl of 750 μM ATP, and 75 μl of reaction buffer (50 mM Hepes, pH 7.4 and 20 mM MgCl2) at 22° C. The reaction was terminated with CHCl3 :CH3 OH:HCl (100:100:1, v/v/v) (3, 4, 13) and 150 μl of balanced salt solution (135 mM NaCl, 4.5 mM KCl, 1.5 mM CaCl2, 0.5 mM MgCl2, 5.6 mM glucose, and 10 mM Hepes, pH 7.2) containing 20 mM EDTA. Lipids in the organic phase extract were subjected to alkaline methanolysis to remove glycerophospholipids (4). Sphingomyelin recovery in the nuclei-free supernate was 93% of that in intact cells. A measure of 10^6 cell equivalents of supernate contained 50 μg of protein. Sphingomyelin was resolved by thin-layer chromatograhy (TLC) with CHCl3 :CH3 OH:CH3 COOH:H2 O (25:15:4:1.5 ) as solvent, identified by iodine vapor staining and quantified by liquid scintillation spectrometry (1, 8, 56). Ceramide was quantified with the diacyglycerol kinase reaction (4, 57). Values (mean) are derived from triplicate determinations from one experiment representative of three similar studies for sphingomyelin and four similar studies for ceramide.
# (§2) The binding of TNF-α to its receptor is detectable within 2 minutes and maximal by 5 to 10 minutes at 4° C. in membranes derived from HL-60 cells (41). Therefore, supernates from HL-60 cells, collected after a low-speed centrifugation to remove nuclei, were first incubated with TNF-α for 5 minutes at 4° C. to allow the formation of TNF-receptor complexes. Thereafter, reactions were initiated by warming supernates to 22° C. in a reaction mixture containing adenosine triphosphate (ATP) and Mg^2+ at pH 7.4.
# These conditions were adopted to allow for activation of neutral sphingomyelinase (1, 42). Under these conditions, TNF-α induced a time- and concentration-dependent reduction in sphingomyelin content (FIG. 9A). the effect of TNF-α was evident at 1 minute and maximal by 7.5 minutes. Sphingomyelin concentrations decreased 27% from a control concentration of 10.4±0.5 (mean ± SEM) to 7.6±0.2 nmol per milligram (nmol mg^-1) of supernate protein (P<0.001). […] Concentrations of TNF-α of 300 pM were ineffective, with a maximal effect at 3 nMTNF-α [effective dose (ED50)≈500 pM]. Under the same conditions, ceramide increased quantitatively from 1.8±0.3 to 4.0±0.5 nmol mg^-1 (FIG. 9B). This effect was detectable at 1 minute (P<0.001) and maximal by 7.5 minutes. Thus, 2.8 nmol of sphingomyelin per milligram of supernate protein were lost for each 2.2 nmol of ceramide per milligram of supernate protein that was generated. […] Other choline-containing lipids, including phosphatidyl-choline, lysophosphatidylcholine, sphingosylphosphorylcholine(1), and 1,2-diacylglycerol were not affected by TNF-α.
# [2] = test system: ceramide (HL-60 nuclei-free supernate); assay: Ceramide content in HL-60 cell-free system; assay type: biochemical, human
# Method: as §1, §2
# These conditions were adopted to allow for activation of neutral sphingomyelinase (1, 42). […] Under the same conditions, ceramide increased quantitatively from 1.8±0.3 to 4.0±0.5 nmol mg^-1 (FIG. 9B). […]
# [3] = test system: ceramide-activated protein kinase; assay: Ceramide-activated protein kinase activity in HL-60 cell-free system; assay type: biochemical, human
# Method: HL-60 cells were incubated in serum-free medium and homogenized (as in FIGS. 9A and 9B). […] ATP (750 μM, 4000 dpm pmol^-1), and 75 μl of reaction buffer (40). The reaction was terminated by adding 30 μl of 0.5M ATP in 90% formic acid. Phosphorylated peptide was first run on a C18 Sep-Pak cartridge, then resolved by C18 reverse-phase HPLC (Waters, Milford, Mass.), with a linear gradient of acetonitrile. The peptide eluted at 30% acetonitrile, as determined by monitoring Cerenkov radiation in 1-ml fractions. Background activity was subtracted from each point. (FIG. 10A) Kinetics of TNF-α (30 nM)-stimulated EGFR peptide phosphorylation. Values (mean) represent data from four experiments. (FIG. 10B) Concentration dependence of EGFR peptide phosphorylation at 5 minutes of stimulation with TNF-α (0.01 to 30 nM). Values (mean) represent data derived from duplicate points in two experiments. The SEM of the values in (FIG. 10A) was 18% and the mean range of values in (FIG. 10B) was 3%.
# Peptide phosphorylation was measured as in FIGS. 10A nad 10B. Control value represents peptide phosphorylation in the absence of phospholipases or TNF-α. Values (mean ± SEM) represent data derived from duplicate samples in three experiments. *P<0.001 compared to control.
# as §2
# The effect of TNF-α on ceramide-activated protein kinase activity was assessed. […] For studies assessing the effect of TNFα in broken cell preparations, nuclei-free supernates were incubated under conditions sufficient for stimulation of neutral sphingomyelinase in a reaction mixture that also contained EGFR peptide and γ-^32 P-labeled ATP. Phosphorylated peptide was resolved by high-performance liquid chromatograph (HPLC) and quantified by Cerenkov counting (40). Kinase activity was calculated from the specific activity of [γ-^32 P] ATP and incorporation of ^32 P into EGFR peptide. Background activity was subtracted from each point. […] If the initial incubation with TNF-α at 4° C. was omitted and TNF was added directly to the reaction mixture at 22° C., the reaction was delayed. […] TNF-α enhanced kinase activity in a concentration-dependent manner at 5 minutes (FIG. 10B). […] This is similar to the ED50 of 200 pM for stimulation of ceramide-activated protein kinase by TNF-α in intact cells (40). TNF-α enhanced kinase activity in a total of 20 separate studies.
# Control activity reflects several TNF-α-independent protein kinases that are known to phosphorylate EGFR peptide on Thr^669.
# [4] = test system: phosphatidyl-choline, lysophosphatidylcholine, sphingosylphosphorylcholine, 1,2-diacylglycerol; assay: Other choline-containing lipids and diacylglycerol in HL-60 cell-free system; assay type: biochemical, human; settings: TNF-α
# [5] = test system: ceramide-activated protein kinase
# [6] = test system: ceramide-activated protein kinase; settings: cited from earlier work
# [7] = test system: HL-60 cells; settings: cited from earlier work
# [8] = test system: HL-60 cells; settings: cited from earlier work; remark: listed apart in the source
substance,measurement,setting,value
TNF-α,concentration for maximal effect on sphingomyelin,[1]; TNF-α,3 nM
same,"effective dose (ED50), sphingomyelin reduction",[1]; TNF-α,≈ 500 pM
same,sphingomyelin lost,[1]; TNF-α,2.8 nmol per milligram of supernat
same,time at which sphingomyelin reduction was evident,[1]; TNF-α,1 min
same,time to maximal sphingomyelin reduction,[1]; TNF-α,≤ 7.5 min
same,decrease in sphingomyelin concentration,"[1]; TNF-α, P<0.001",27%
same,sphingomyelin concentration after TNF-α,"[1]; mean ± SEM, control 10.4±0.5, P<0.001",7.6±0.2 nmol per milligram (nmol mg^-1) of supernate protein
same,ceramide generated,[2]; TNF-α,2.2 nmol per milligram of supernat
same,time to maximal ceramide increase,[2]; TNF-α,≤ 7.5 min
same,time at which ceramide increase was detectable,"[2]; TNF-α, P<0.001",1 min
same,ceramide concentration after TNF-α,[2]; from 1.8±0.3,4.0 ± 0.5 nmol/mg
same,delay before enhancement of kinase activity,"[3]; TNF added directly at 22° C., no 4° C. incubation",2 min
same,duration of stimulation of kinase activity,[3]; TNF-α 30 nM,at least 10 minutes
same,time at which stimulation of kinase activity was evident,[3]; TNF-α 30 nM,evident by i minute
same,effect on kinase activity (in words),"[3]; TNF-α 30 nM, GTP, GTP-γ-S 0.25 to 200 μM, SMase 1×10^-3 U ml^-1, 5 minutes, phospholipases 40- to 400-fold higher",enhanced kinase activity (P<0.001)
same,concentration for maximal effect,"[3]; TNF-α, 5 minutes",3 nM
same,effective concentration,"[3]; TNF-α, 5 minutes",10 pM
same,ED50 for kinase activity,"[3]; TNF-α, 5 minutes, cell-free",≈ 300 pM
same,"effect on phosphatidyl-choline, lysophosphatidylcholine, sphingosylphosphorylcholine and 1,2-diacylglycerol",[4],not affected
same,increase in kinase activity,"[5]; TNF-α 3 pM, 60 minutes",1.1 -fold of control
same,increase in kinase activity,"[5]; TNF-α 30 nM, 5 minutes",1.5 -fold of control
same,maximal effect on kinase activity,"[5]; TNF-α 30 nM, 60 minutes",1.8 -fold of control
same,increase in kinase activity,"[5]; TNF-α 30 nM, 2 hours",2.2 -fold of control
same,increase in kinase activity,"[5]; TNF-α 30 nM, 2 hours, listed as TNF",2 -fold of control
same,ED50 for kinase activity,"[5]; TNF-α, 60 minutes, intact cells",≈ 200 pM
same,effect on kinase activity (in words),[6]; intact HL-60 cells,rapidly increased; also recorded: similarly enhanced kinase activity in intact cells
same,ED50 for stimulation of ceramide-activated protein kinase,[6]; intact cells,200 pM
same,maximally effective concentration for generation of ceramide,[7]; also for monocyte differentiation,30 nM
same,sphingomyelin degradation to ceramide / ceramide level (in words),[7],increase cellular levels of ceramide within minutes; also recorded: activates a neutral sphingomyelinase to generate ceramide
same,sphingomyelin degradation to ceramide / ceramide level (in words),[7]; listed as Tumor necrosis factor (TNF) α,stimulate sphingomyelin degradation to ceramide
same,monocytic differentiation,[8],induce monocytic differentiation
